Reference: patent publication US20250302080A1, “SWEETNESS AND/OR FLAVOR ENHANCER” (AJINOMOTO CO., INC., priority 2022, published 2025)

Columns and labels:
[1] = Sensory evaluation of sweetness intensity in RebA solution, four reference samples (Experimental Examples 17-19); settings: for concentration at which a sweetness-enhancing effect was confirmed: added alone, 3.0 points or more
Description: A negative control RebA solution (0.073 wt % RebA solution) was prepared by dissolving RebA in filtered water.
(§1) A sensory evaluation of sweetness intensity was performed for each sample by a panel of four experts according to the following evaluation criteria.
Sweetness intensity was evaluated by 0.0 to 10.0 points based on the following reference samples (negative control (hereinafter referred to as NC) (0.0 point); reference 1 (hereinafter referred to as R1) (3.2 points), reference 2 (hereinafter referred to as R2) (5.0 points); reference 3 (hereinafter referred to as R3) (10.0 points)). The average score (rounded to two decimal places) of each expert panelist was calculated. An average score of 3.0 points or more was considered to be functional. • NC (0.0 point): 0.073 wt % RebA solution (solvent: filtered water) • R1 (3.2 points): 0.073 wt % RebA solution (solvent: filtered water)+decanoic acid (10 ppb) • R2 (5.0 points): 0.077 wt % RebA solution (solvent: filtered water) • R3 (10.0 points): 0.080 wt % RebA solution (solvent: filtered water)
A sensory evaluation of sweetness intensity was performed for each sample by a panel of four experts according to the same evaluation criteria as in Experimental Example 17.

[2] = Sensory evaluation of sweetness intensity in sucrose solution (Experimental Examples 25-27)
Description: A negative control sucrose solution (0.7 wt % sucrose solution) was prepared by dissolving sucrose in filtered water.
as §1
Sweetness intensity was evaluated by 0.0 to 10.0 points based on the following reference samples (negative control (hereinafter referred to as NC) (0.0 point); reference 1 (hereinafter referred to as R1) (3.0 points), reference 2 (hereinafter referred to as R2) (5.0 points); reference 3 (hereinafter referred to as R3) (10.0 points)). The average score (rounded to two decimal places) of each expert panelist was calculated. An average score of 3.0 points or more was considered to be functional. • NC (0.0 point): 7.0 wt % sucrose solution (solvent: filtered water) • R1 (3.0 points): 7.3 wt % sucrose solution (solvent: filtered water) • R2 (5.0 points): 7.5 wt % sucrose solution (solvent: filtered water) • R3 (10.0 points): 8.0 wt % sucrose solution (solvent: filtered water)
A sensory evaluation of sweetness intensity was performed for each sample by a panel of four experts according to the same evaluation criteria as in Experimental Example 25.

[3] = Sensory evaluation of sweetness intensity in RebM solution (Experimental Examples 20-21)
Description: A negative control RebM solution (0.063 wt % RebM solution) was prepared by dissolving RebM in filtered water.
as §1
Sweetness intensity was evaluated by 0.0 to 10.0 points based on the following reference samples (negative control (hereinafter referred to as NC) (0.0 point); reference 1 (hereinafter referred to as R1) (3.0 points), reference 2 (hereinafter referred to as R2) (5.0 points); reference 3 (hereinafter referred to as R3) (10.0 points)). The average score (rounded to two decimal places) of each expert panelist was calculated. An average score of 3.0 points or more was considered to be functional. • NC (0.0 point): 0.063 wt % RebM solution (solvent: filtered water) • R1 (3.0 points): 0.063 wt % RebM solution (solvent: filtered water)+dodecanoic acid (1 ppb) • R2 (5.0 points): 0.066 wt % RebM solution (solvent: filtered water) • R3 (10.0 points): 0.069 wt % RebM solution (solvent: filtered water)
A sensory evaluation of sweetness intensity was performed for each sample by a panel of four experts according to the same evaluation criteria as in Experimental Example 20.

[4] = Sensory evaluation of sweetness intensity in aspartame solution, four reference samples (Experimental Example 22)
Description: A negative control aspartame solution (0.063 wt % aspartame solution) was prepared by dissolving aspartame in filtered water.
as §1
Sweetness intensity was evaluated by 0.0 to 10.0 point based on the following reference samples (negative control (hereinafter referred to as NC) (0.0 point); reference 1 (hereinafter referred to as R1) (3.2 points), reference 2 (hereinafter referred to as R2) (5.0 points); reference 3 (hereinafter referred to as R3) (10.0 points)). The average score (rounded to two decimal places) of each expert panelist was calculated. An average score of 3.0 points or more was considered to be functional. • NC (0.0 point): 0.063 wt % aspartame solution (solvent: filtered water) • R1 (3.2 points): 0.063 wt % aspartame solution (solvent: filtered water)+decanoic acid (10 ppb) • R2 (5.0 points): 0.066 wt % aspartame solution (solvent: filtered water) • R3 (10.0 points): 0.069 wt % aspartame solution (solvent: filtered water)

[5] = Sensory evaluation of sweetness intensity in sucralose solution (Experimental Examples 23-24); settings: average score
Description: A negative control sucralose solution (0.0140 wt % sucralose solution) was prepared by dissolving sucralose in filtered water.
as §1
Sweetness intensity was evaluated by 0.0 to 10.0 point based on the following reference samples (negative control (hereinafter referred to as NC) (0.0 point); reference 1 (hereinafter referred to as R1) (3.0 points), reference 2 (hereinafter referred to as R2) (5.0 points); reference 3 (hereinafter referred to as R3) (10.0 points)). The average score (rounded to two decimal places) of each expert panelist was calculated. An average score of 3.0 points or more was considered to be functional. • NC (0.0 point): 0.0140 wt % sucralose solution (solvent: filtered water) • R1 (3.0 points): 0.0164 wt % sucralose solution (solvent: filtered water) • R2 (5.0 points): 0.0180 wt % sucralose solution (solvent: filtered water) • R3 (10.0 points): 0.0220 wt % sucralose solution (solvent: filtered water)
A sensory evaluation of sweetness intensity was performed for each sample by a panel of four experts according to the same evaluation criteria as in Experimental Example 23.

[6] = added alone, 3.0 points or more
[7] = added alone at 0.001 ppb to 0.0140 wt % sucralose solution
[8] = added alone at 0.01 ppb to 0.0140 wt % sucralose solution
[9] = added alone at 0.1 ppb to 0.0140 wt % sucralose solution
[10] = added alone at 1 ppb to 0.0140 wt % sucralose solution
[11] = added alone at 10 ppb to 0.0140 wt % sucralose solution
[12] = added alone at 100 ppb to 0.0140 wt % sucralose solution
[13] = added alone at 1000 ppb to 0.0140 wt % sucralose solution
[14] = added alone at 10000 ppb to 0.0140 wt % sucralose solution

| Compound | concentration at which a sweetness-enhancing effect was confirmed [1] | sweetness intensity ([3]; acid added alone at 0.001 ppb) [points] | sweetness intensity ([3]; acid added alone at 0.01 ppb) [points] | sweetness intensity ([3]; acid added alone at 0.1 ppb) [points] | sweetness intensity ([3]; acid added alone at 1 ppb) [points] | sweetness intensity ([3]; acid added alone at 10 ppb) [points] | sweetness intensity ([3]; acid added alone at 100 ppb) [points] | sweetness intensity ([3]; acid added alone at 1000 ppb) [points] | sweetness intensity ([3]; acid added alone at 10000 ppb) [points] | sweetness intensity ([1]; acid added alone at 0.001 ppb) [points] | sweetness intensity ([1]; acid added alone at 0.01 ppb) [points] | sweetness intensity ([1]; acid added alone at 0.1 ppb) [points] | sweetness intensity ([1]; acid added alone at 1 ppb) [points] | sweetness intensity ([1]; acid added alone at 10 ppb) [points] | sweetness intensity ([1]; acid added alone at 100 ppb) [points] | sweetness intensity ([1]; acid added alone at 1000 ppb) [points] | sweetness intensity ([1]; acid added alone at 10000 ppb) [points] | sweetness intensity ([4]; acid added alone at 0.001 ppb) [points] | sweetness intensity ([4]; acid added alone at 0.01 ppb) [points] | sweetness intensity ([4]; acid added alone at 0.1 ppb) [points] | also measured |
| --- | --- | --- | --- | --- | --- | --- | --- | --- | --- | --- | --- | --- | --- | --- | --- | --- | --- | --- | --- | --- | --- |
| O=C1C[C@@H](c2ccc(O)cc2)Oc2cc(O)cc(O)c21 [naringenin] | ≥ 10 ppm | – | – | – | – | – | – | – | – | – | – | – | – | – | – | – | – | – | – | – | sweetness intensity ([1]; naringenin alone at 1 ppm): 1.8 points; sweetness intensity ([1]; naringenin alone at 5 ppm): 2.5 points; sweetness intensity ([1]; naringenin alone at 10 ppm): 3.3 points; sweetness intensity ([1]; naringenin alone at 15 ppm): 4.1 points; sweetness intensity ([1]; naringenin alone at 30 ppm): 5.0 points; sweetness intensity ([1]; naringenin alone at 50 ppm): 5.4 points; concentration at which a sweetness-enhancing effect was confirmed [2, 6]: ≥ 15 ppm; sweetness intensity ([2]; naringenin alone at 1 ppm): 1.1 points; sweetness intensity ([2]; naringenin alone at 5 ppm): 1.7 points; sweetness intensity ([2]; naringenin alone at 10 ppm): 2.6 points; sweetness intensity ([2]; naringenin alone at 15 ppm): 3.6 points; sweetness intensity ([2]; naringenin alone at 30 ppm): 4.6 points; sweetness intensity ([2]; naringenin alone at 50 ppm): 5.8 points |
| CCCCCCCC(=O)O [octanoic acid] | ≥ 1000 ppb | 1.1 | 1.8 | 2.7 | 3.3 | 4.3 | 4.3 | 4.4 | 4.3 | 0.3 | 0.4 | 0.9 | 1.3 | 2.0 | 2.6 | 3.7 | 4.0 | 0.6 | 1.4 | 2.2 | sweetness intensity ([4]; acid added alone at 1 ppb): 2.9 points; sweetness intensity ([4]; acid added alone at 10 ppb): 3.4 points; sweetness intensity ([4]; acid added alone at 100 ppb): 3.9 points; sweetness intensity ([4]; acid added alone at 1000 ppb): 4.3 points; sweetness intensity ([4]; acid added alone at 10000 ppb): 4.6 points; concentration at which a sweetness-enhancing effect was confirmed [4, 6]: ≥ 10 ppb; sweetness intensity [5, 7]: 0.5 points; sweetness intensity [5, 8]: 1.3 points; sweetness intensity [5, 9]: 1.8 points; sweetness intensity [5, 10]: 2.3 points; sweetness intensity [5, 11]: 2.9 points; sweetness intensity [5, 12]: 3.3 points; sweetness intensity [5, 13]: 4.0 points; sweetness intensity [5, 14]: 4.5 points |
| CCCCCCCCCCC(=O)O [undecanoic acid] | ≥ 0.1 ppb | 1.3 | 2.0 | 2.4 | 2.9 | 3.3 | 3.9 | 4.4 | 4.1 | 0.3 | 1.9 | 3.5 | 4.5 | 5.4 | 6.0 | 6.2 | 5.7 | 1.3 | 2.1 | 2.8 | sweetness intensity ([4]; acid added alone at 1 ppb): 3.2 points; sweetness intensity ([4]; acid added alone at 10 ppb): 3.8 points; sweetness intensity ([4]; acid added alone at 100 ppb): 4.1 points; sweetness intensity ([4]; acid added alone at 1000 ppb): 4.7 points; sweetness intensity ([4]; acid added alone at 10000 ppb): 5.5 points; sweetness intensity [5, 7]: 0.9 points; sweetness intensity [5, 8]: 1.3 points; sweetness intensity [5, 9]: 1.7 points; sweetness intensity [5, 10]: 2.1 points; sweetness intensity [5, 11]: 2.8 points; sweetness intensity [5, 12]: 3.1 points; sweetness intensity [5, 13]: 3.4 points; sweetness intensity [5, 14]: 3.2 points |
